Results published in patent US6532386B2, “Electrotransort device comprising blades” (Johnson & Johnson Consumer Companies, Inc., priority 1998, dated 2003).

Legend:
[1] = Transdermal reverse polarity iontophoresis of insulin in pig: blood glucose concentration; type: in vivo
Method: The procedure in Example 3 was repeated, except the stratum corneum of the pig was not disrupted with 400 μm blades and reverse polarity iontophoresis was only conducted for 30 minutes. […] Thus, no insulin was apparently delivered during the iontophoresis process.
The procedure in Example 4 was repeated, except 800 μm blades were pressed against the stratum corneum of a diabetic pig before iontophoresis was performed. The blood glucose in the pig was monitored for 9 hours.
The procedure described in Example 5 was then repeated.
The procedure in Example 5 was repeated except that ethyl cyanoacrylate was applied to the surface of the 800 μm blades before the blades were pressed against the skin of the pig. The blades were held against the skin of the pig for 2 minutes prior to performing iontophoresis to allow the ethyl cyanoacrylate to solidify prior to removal. […] The blood glucose concentration in the pig was monitored for 8 hours. The quantity of insulin delivered was so large that the hyperglycemic pig having an initial blood glucose concentration of 180 mg/dl became seriously hypoglycemic with a blood glucose concentration of 25 mg/dl.

[2] = From the text: The stratum corneum was physically disrupted by repeatedly scratching the skin of a pig with 400 μm blades 20 times, 10 scratchings in one direction, 10 more in a direction perpendicular to the previous direction. Two electrodes were constructed with hollow 3.5 cm by 3.5 cm by 0.5 cm polystyrene vessels each having a volume of about 5 cm^3. A 3 cm by 3 cm by 0.5 mm piece of stainless steel was adhered to the inside of each polystyrene vessel. The electrodes were affixed to the skin of the pig with Dow Corning 355 Medical Adhesive available from Dow Corning of Midland, Mich.
An insulin solution available as Humulin-®(500 units/mL) from Eli Lilly and Co. of Indianapolis, Ind., was injected into the vessel with a hyperdermic needle. Iontophoresis was performed with direct current at a current intensity of 4 mA over about 12 cm^2 of skin. The electric polarity was manually reversed every 5 minutes for 2 hours. The blood glucose concentration and insulin serum concentration in the pig were periodically measured before, during, and after iontophoresis.
The skin on a pig was wiped generously with 200 proof ethanol and allowed to dry to induce skin permeation enhancement. The procedure described in Example 5 was then repeated. The blood glucose concentration and insulin serum concentration in the pig were monitored for 6 hours. […]

[3] = Example 5: diabetic pig, 800 μm blades, iontophoresis 30 minutes

## insulin
[1]; Comparative Example 4: stratum corneum not disrupted with blades, reverse polarity iontophoresis 30 minutes
  reduction in blood glucose: lack of any reduction in blood glucose
[1]; Example 3: pig skin scratched with 400 μm blades, iontophoresis 4 mA over about 12 cm^2, polarity reversed every 5 minutes for 2 hours, from 140 mg/dl
  blood glucose concentration: 30 mg/dL
[1]; Example 3: pig skin scratched with 400 μm blades, reverse polarity iontophoresis for 2 hours
  reduction of the blood glucose concentration: ~80%
[1]; Example 5: diabetic pig, 800 μm blades pressed against stratum corneum, iontophoresis 30 minutes, monitored 9 hours
  reduction in the blood glucose concentration: ~37%
[1]; [3]
  blood glucose level maintained: below 140 mg/dl
  time blood glucose level was maintained below 140 mg/dl: over 8 hours
[1]; Example 6: skin wiped with 200 proof ethanol, 800 μm blades, after 2 hours
  reduction of blood glucose: ~50%
[1]; Example 7: skin pre-treated with Nair lotion (calcium thioglycolate), 800 μm blades, iontophoresis 120 minutes, after 3 hours
  reduction of blood glucose: 30%
[1]; Example 8: hyperglycemic pig, ethyl cyanoacrylate on 800 μm blades, iontophoresis 120 minutes, initial 180 mg/dl
  blood glucose concentration: 25 mg/dL
[2]; Example 3: pig skin scratched with 400 μm blades, reverse polarity iontophoresis for 2 hours, from 25
  insulin serum rise (insulin serum concentration): 590 _IU/ml
[2]; Example 6: skin wiped with 200 proof ethanol, 800 μm blades, after one hour
  serum insulin concentration: approximately 60 _IU/ml
